Our source for the T/C values is PubChem BioAssay AID316 (DTP/NCI, 2004).

Molecules are shown by their SMILES. Several values for one entry are separate records, joined by “and”; a condition that tells them apart may be missing. Equal values may be shown once. Toxic doses and inconclusive results are not listed.

The test system of the test is P1534 leukemia ip, CD2F1 mice, survival T/C. In words: NCI In Vivo Anticancer Drug Screen. Data for tumor model P1534 Leukemia (intraperitoneal) in CD2F1 (CDF1) mice. Conditions: higher = longer survival. As for the experimental part:
The antitumor activity of compounds was measured in mice bearing transplantable tumors. Survival or tumor size were measured and the results are expressed as the measurement made in the treated group (T) divided by the measurement made in the vehicle treated control group (C). The tumor model used in this assay is P1534 Leukemia (intraperitoneal) in CD2F1 (CDF1) mice

Where [1] appears, read: endpoint: mean survival time, dose: 150.0 mg/kg/injection, schedule: Q01DX010 (ip), vehicle: water.
Setting [2] is: endpoint: mean survival time, dose: 200.0 mg/kg/injection, schedule: Q01DX010 (ip), vehicle: water.
Where [3] appears, read: endpoint: mean survival time, dose: 1.25 mg/kg/injection, schedule: Q01DX010 (ip), vehicle: saline.
Where [4] appears, read: endpoint: mean survival time, dose: 2.5 mg/kg/injection, schedule: Q01DX010 (ip), vehicle: saline.
[5] abbreviates: endpoint: mean survival time, dose: 5.0 mg/kg/injection, schedule: Q01DX010 (ip), vehicle: saline.
[6] abbreviates: endpoint: mean survival time, dose: 10.0 mg/kg/injection, schedule: Q01DX010 (ip), vehicle: saline.
Setting [7] is: endpoint: mean survival time, dose: 50.0 mg/kg/injection, schedule: Q01DX010 (ip), vehicle: saline.
Setting [8] is: endpoint: mean survival time, dose: 100.0 mg/kg/injection, schedule: Q01DX010 (ip), vehicle: saline.
Setting [9] is: endpoint: mean survival time, dose: 200.0 mg/kg/injection, schedule: Q01DX010 (ip), vehicle: saline.
[10] abbreviates: endpoint: mean survival time, dose: 400.0 mg/kg/injection, schedule: Q01DX010 (ip), vehicle: saline.
[11] abbreviates: endpoint: mean survival time, dose: 12.5 mg/kg/injection, schedule: Q01DX010 (sc), vehicle: steriod suspending solution.
Setting [12] is: endpoint: mean survival time, dose: 25.0 mg/kg/injection, schedule: Q01DX010 (sc), vehicle: steriod suspending solution.
[13] abbreviates: endpoint: mean survival time, dose: 50.0 mg/kg/injection, schedule: Q01DX010 (sc), vehicle: steriod suspending solution.
Setting [14] is: endpoint: mean survival time, dose: 100.0 mg/kg/injection, schedule: Q01DX010 (sc), vehicle: steriod suspending solution.
The mark [15] stands for this setting: endpoint: mean survival time, dose: 12.5 mg/kg/injection, schedule: Q01DX010 (ip), vehicle: saline.
Setting [16] is: endpoint: mean survival time, dose: 25.0 mg/kg/injection, schedule: Q01DX010 (ip), vehicle: saline.
[17] abbreviates: endpoint: mean survival time, dose: 1.5 mg/kg/injection, schedule: Q01DX010 (ip), vehicle: saline.
The mark [18] stands for this setting: endpoint: mean survival time, dose: 3.0 mg/kg/injection, schedule: Q01DX010 (ip), vehicle: saline.
Where [19] appears, read: endpoint: mean survival time, dose: 62.5 mg/kg/injection, schedule: Q01DX010 (ip), vehicle: saline.
The mark [20] stands for this setting: endpoint: mean survival time, dose: 125.0 mg/kg/injection, schedule: Q01DX010 (ip), vehicle: saline.
Setting [21] is: endpoint: mean survival time, dose: 250.0 mg/kg/injection, schedule: Q01DX010 (ip), vehicle: saline.
[22] abbreviates: endpoint: mean survival time, dose: 500.0 mg/kg/injection, schedule: Q01DX010 (ip), vehicle: saline.
[23] abbreviates: endpoint: mean survival time, dose: 0.13 mg/kg/injection, schedule: Q01DX010 (ip), vehicle: saline.

Take `OCn1cccn1`: the T/C runs as follows: (endpoint: mean survival time, dose: 100.0 mg/kg/injection, schedule: Q01DX010 (ip), vehicle: water) 124 % of control; (endpoint: mean survival time, dose: 125.0 mg/kg/injection, schedule: Q01DX010 (ip), vehicle: water) 121 % of control; under setting [1], 118 % of control; under setting [2], 86 % of control.
In the case of `Nc1nc(=S)c2[nH]cnc2[nH]1`, the T/C is 161 % of control and 181 % of control under setting [3]; 150 % of control under setting [4]; 122 % of control under setting [5]; 105 % of control under setting [6].
Take `O=C(NCCCCCCNC(=O)OCc1ccccc1)OCc1ccccc1`: the T/C by setting is: under setting [7], 100 % of control; under setting [8], 96 % of control; under setting [9], 92 % of control; under setting [10], 100 % of control.
For the molecule `C[C@]12C[C@H](O)[C@H]3[C@@H](CCC4=CC(=O)CC[C@@]43C)[C@@H]1CC[C@@H]2C(=O)CO`, the T/C under setting [11] is 107 % of control, the T/C under setting [12] was 107 % of control, the T/C under setting [13] was 107 % of control and the T/C under setting [14] was 107 % of control.
On to `C/C=C1\CNC2Cc3c([nH]c4ccccc34)C(=O)CC1C2C(=O)OC` (configuration not stated), for which the T/C by setting is: under setting [15], 93 % of control; under setting [16], 103 % of control; under setting [7], 96 % of control; under setting [8], 93 % of control.
Regarding `Nc1ncnc2[nH]ncc12`, the T/C under setting [17] was 100 % of control; the T/C under setting [18] is 110 % of control and 100 % of control; the T/C (endpoint: mean survival time, dose: 6.0 mg/kg/injection, schedule: Q01DX010 (ip), vehicle: saline) was 120 % of control and 100 % of control; the T/C (endpoint: mean survival time, dose: 12.0 mg/kg/injection, schedule: Q01DX010 (ip), vehicle: saline) is 115 % of control and 95 % of control.
For the molecule `CC/C(=C(/CC)c1ccc(O)cc1)c1ccc(O)cc1`, the T/C by setting is: under setting [11], 95 % of control and 100 % of control; under setting [12], 95 % of control and 100 % of control; under setting [13], 95 % of control and 100 % of control; under setting [14], 90 % of control and 100 % of control.
On to `CC[C@]12CN3CCc4c([nH]c5ccccc45)[C@@](C(=O)OC)(c4cc5c(cc4OC)N(C)[C@H]4[C@@](O)(C(=O)OC)[C@H](OC(C)=O)[C@]6(CC)C=CCN7CC[C@]54[C@@H]76)CC(C3)[C@H]1O2` (some centres not stated), for which the T/C by setting is: under setting [17], 182 % of control; under setting [18], 260 % of control; (endpoint: mean survival time, dose: 94.0 micrograms/kg/injection, schedule: Q01DX010 (ip), vehicle: saline) 96 % of control; (endpoint: mean survival time, dose: 188.0 micrograms/kg/injection, schedule: Q01DX010 (ip), vehicle: saline) 103 % of control; (endpoint: mean survival time, dose: 375.0 micrograms/kg/injection, schedule: Q01DX010 (ip), vehicle: saline) 123 % of control.
For `OCC1OC(n2cnc3c(Cl)ncnc32)C(O)C1O` (configuration not stated), the T/C is 94 % of control and 100 % of control under setting [19]; 100 % of control under setting [20]; 111 % of control under setting [21]; 105 % of control and 88 % of control under setting [22].
As for `C[C@@H]1CCC([C@@H](C)[C@H]2CC[C@H]3[C@@H]4CC[C@H]5C[C@@H](O)CC[C@]5(C)[C@H]4CC[C@]23C)=NC1`, the T/C is 107 % of control under setting [15], 103 % of control under setting [16], 100 % of control under setting [7] and 100 % of control under setting [8].
Turning to `C[C@H]1/C(=C/C(=O)OCCN(C)C)CC[C@H]2[C@H]1C(=O)C[C@H]1C(C)(C)[C@@H](O)CC[C@]21C`, the T/C reads like this: (endpoint: mean survival time, dose: 4.0 mg/kg/injection, schedule: Q01DX010 (ip), vehicle: saline) 96 % of control; (endpoint: mean survival time, dose: 8.0 mg/kg/injection, schedule: Q01DX010 (ip), vehicle: saline) 113 % of control.
Turning to `COc1cc2c(c3c1c(=O)c1ccccc1n3C)C=CC(C)(C)O2`, the T/C is, setting by setting: (endpoint: mean survival time, dose: 6.25 mg/kg/injection, schedule: Q01DX010 (ip), vehicle: other) 108 % of control; (endpoint: mean survival time, dose: 12.5 mg/kg/injection, schedule: Q01DX010 (ip), vehicle: other) 108 % of control; (endpoint: mean survival time, dose: 25.0 mg/kg/injection, schedule: Q01DX010 (ip), vehicle: other) 116 % of control; (endpoint: mean survival time, dose: 50.0 mg/kg/injection, schedule: Q01DX010 (ip), vehicle: other) 91 % of control; (endpoint: mean survival time, dose: 100.0 mg/kg/injection, schedule: Q01DX010 (ip), vehicle: other) 116 % of control.
As to `O=C(C[C@H]1CCC[C@H](CC(=O)c2ccccc2)N1)c1ccccc1`, the T/C under setting [15] was 92 % of control, the T/C under setting [16] is 107 % of control and the T/C under setting [7] was 107 % of control.
As to `COc1ccc2c(c1OC)CN1CCc3cc4c(cc3C1C2)OCO4` (configuration not stated), the T/C by setting is: under setting [7], 107 % of control; under setting [8], 92 % of control; under setting [9], 88 % of control; under setting [10], 100 % of control.
Take `Cn1c(N)nc2nc[nH]c2c1=S`: the T/C was 100 % of control under setting [6]; 100 % of control (endpoint: mean survival time, dose: 20.0 mg/kg/injection, schedule: Q01DX010 (ip), vehicle: saline); 96 % of control (endpoint: mean survival time, dose: 40.0 mg/kg/injection, schedule: Q01DX010 (ip), vehicle: saline); 110 % of control (endpoint: mean survival time, dose: 80.0 mg/kg/injection, schedule: Q01DX010 (ip), vehicle: saline).
Turning to `CC(=O)NCCCCCCNC(C)=O`, the T/C is 93 % of control under setting [7], 96 % of control under setting [8], 96 % of control under setting [9] and 100 % of control under setting [10].
With `COc1ccc2c(c1O)-c1c(OC)c(OC)cc3c1[C@H](C2)[N+](C)(C)CC3`, the T/C runs as follows: under setting [3], 96 % of control; under setting [4], 103 % of control; under setting [5], 103 % of control; under setting [6], 100 % of control.
On to `O=C(O)c1[nH]c(=O)[nH]c(=O)c1F`, for which the T/C by setting is: under setting [3], 106 % of control; under setting [5], 236 % of control; under setting [6], 106 % of control.
Turning to `C=C1c2[nH]c3ccccc3c2CN2CCC1/C(=C/C)C2` (configuration not stated), the T/C runs as follows: under setting [23], 96 % of control; (endpoint: mean survival time, dose: 0.25 mg/kg/injection, schedule: Q01DX010 (ip), vehicle: saline) 93 % of control; (endpoint: mean survival time, dose: 0.5 mg/kg/injection, schedule: Q01DX010 (ip), vehicle: saline) 96 % of control; (endpoint: mean survival time, dose: 1.0 mg/kg/injection, schedule: Q01DX010 (ip), vehicle: saline) 100 % of control.
As to `CC(=O)N(C)C`, the T/C is 94 % of control and 100 % of control under setting [19]; 105 % of control and 100 % of control under setting [20]; 105 % of control and 100 % of control under setting [21]; 100 % of control under setting [22].
With `Cc1nc(N)nc(N)c1-c1ccc(Cl)c(Cl)c1`, the T/C (endpoint: median survival time, dose: 0.75 mg/kg/injection, schedule: Q01DX009 (ip), vehicle: Klucel (hydroxypropylcellulose) (HPC)) was 102 % of control; the T/C (endpoint: median survival time, dose: 1.5 mg/kg/injection, schedule: Q01DX009 (ip), vehicle: Klucel (hydroxypropylcellulose) (HPC)) was 119 % of control; the T/C (endpoint: median survival time, dose: 3.0 mg/kg/injection, schedule: Q01DX009 (ip), vehicle: Klucel (hydroxypropylcellulose) (HPC)) is 107 % of control.
On to `Cc1cc(C)n(C(N)=O)n1`, for which the T/C is, setting by setting: under setting [1], 96 % of control; under setting [2], 111 % of control.
As for `COC1=C(N)C(=O)c2nc(-c3nc(C(=O)O)c(C)c(-c4ccc(OC)c(OC)c4O)c3N)ccc2C1=O`, the T/C is, setting by setting: (endpoint: mean survival time, dose: 0.06 mg/kg/injection, schedule: Q01DX010 (ip), vehicle: saline) 117 % of control; (endpoint: mean survival time, dose: 0.09 mg/kg/injection, schedule: Q01DX010 (ip), vehicle: saline) 110 % of control; under setting [23], 103 % of control.
For the molecule `O=C(NCCCCC(NC(=O)OCc1ccccc1)C(=O)NCCCCCCNCCCCCCNC(=O)C(CCCCNC(=O)OCc1ccccc1)NC(=O)OCc1ccccc1)OCc1ccccc1` (configuration not stated), the T/C is 107 % of control under setting [15], 114 % of control under setting [16] and 114 % of control under setting [7].
As to `N#Cc1cn(C2OC(CO)C(O)C2O)c2ncnc(N)c12` (configuration not stated), the T/C by setting is: (endpoint: mean survival time, dose: 16.0 micrograms/kg/injection, schedule: Q01DX010 (ip), vehicle: saline) 107 % of control; (endpoint: mean survival time, dose: 32.0 micrograms/kg/injection, schedule: Q01DX010 (ip), vehicle: saline) 100 % of control; (endpoint: mean survival time, dose: 63.0 micrograms/kg/injection, schedule: Q01DX010 (ip), vehicle: saline) 107 % of control.
